# Where “and” joins values, the source holds several entries; their conditions need not be identical. Identical values can stand only once.
# Legend:
# [1] = target: T1, human Nav1.7 channels (Homo sapiens, UniProt Q15858); assay: Whole-cell patch clamp, use-dependent block of sodium current, compound dialyzed inside cells; format: cell-based; settings: 10 micromolar intracellular; stimulation series 0.05 to 10 Hz; HEK293 hNav1.7
# T1 construct: expressed in transfected cells
# Description: Whole-cell recordings were made of currents carried by voltage-activated sodium channels in HEK293 cells stably expressing human Nav1.7 channels. Recordings were made using patch pipettes with resistances of 2-3.5 MO when filled with internal solution, consisting of 61 mM CsF, 61 mM CsCl, 9 mM NaCl, 1.8 mM MgCl2, 9 mM EGTA, 14 mM creatine phosphate (tris salt), 4 mM MgATP, and 0.3 mM GTP (tris salt), 9 mM HEPES, pH adjusted to 7.2 with CsOH. The shank of the electrode was wrapped with Parafilm in order to reduce capacitance and allow optimal series resistance compensation without oscillation. Seals were obtained and the whole-cell configuration established with cells in Tyrode's solution (155 mM NaCl, 3.5 mM KCl, 1.5 mM CaCl2), 1 mM MgCl2, 10 mM HEPES, 10 mM glucose, pH adjusted to 7.4 with NaOH) with 10 mM TEACl. To ensure complete dialysis with pipette solution containing the test compounds, recordings began after 5 to 10 minutes after establishment of the whole-cell configuration.
# Currents were recorded at room temperature (21-23° C.) with an Axopatch 200 amplifier or […] amplifier and filtered at 5-10 kHz with a low-pass Bessel filter. The amplifier was tuned for partial compensation of series resistance (typically 70-80% of a total series resistance of 4-10 MO). Currents were digitized using a Digidata 1322A data acquisition interface controlled by pClamp9 or pClamp10 software (Axon Instruments) and analyzed using programs written in Igor Pro 4.0 (Wavemetrics, Lake Oswego, Oreg.). Currents were corrected for linear capacitative and leak currents determined using 5 mV hyperpolarizations delivered from the resting potential (usually −80 or −100 mV) and then appropriately scaled and subtracted.
# Sodium currents were evoked by 30-msec depolarizations from −100 mV to −20 mV. To assay use-dependent block, pulses were delivered at series of increasing rates: 0.05 Hz for 1-min, 0.33 Hz for 1-min, 1 Hz for 1-min, 3 Hz for 1-min, 5 Hz for 30 seconds, 10 Hz for 30 seconds, with 1 minute rest between each series of pulses. […]
# [2] = target: T2, Nav1.5 sodium channels (Homo sapiens, UniProt Q14524); assay: Thallium flux assay, extracellular block of sodium channel in HEK293 cells; format: cell-based; settings: HEK cells
# T2 construct: expressed in transfected cells
# T2 sequence (Q14524 whole entry): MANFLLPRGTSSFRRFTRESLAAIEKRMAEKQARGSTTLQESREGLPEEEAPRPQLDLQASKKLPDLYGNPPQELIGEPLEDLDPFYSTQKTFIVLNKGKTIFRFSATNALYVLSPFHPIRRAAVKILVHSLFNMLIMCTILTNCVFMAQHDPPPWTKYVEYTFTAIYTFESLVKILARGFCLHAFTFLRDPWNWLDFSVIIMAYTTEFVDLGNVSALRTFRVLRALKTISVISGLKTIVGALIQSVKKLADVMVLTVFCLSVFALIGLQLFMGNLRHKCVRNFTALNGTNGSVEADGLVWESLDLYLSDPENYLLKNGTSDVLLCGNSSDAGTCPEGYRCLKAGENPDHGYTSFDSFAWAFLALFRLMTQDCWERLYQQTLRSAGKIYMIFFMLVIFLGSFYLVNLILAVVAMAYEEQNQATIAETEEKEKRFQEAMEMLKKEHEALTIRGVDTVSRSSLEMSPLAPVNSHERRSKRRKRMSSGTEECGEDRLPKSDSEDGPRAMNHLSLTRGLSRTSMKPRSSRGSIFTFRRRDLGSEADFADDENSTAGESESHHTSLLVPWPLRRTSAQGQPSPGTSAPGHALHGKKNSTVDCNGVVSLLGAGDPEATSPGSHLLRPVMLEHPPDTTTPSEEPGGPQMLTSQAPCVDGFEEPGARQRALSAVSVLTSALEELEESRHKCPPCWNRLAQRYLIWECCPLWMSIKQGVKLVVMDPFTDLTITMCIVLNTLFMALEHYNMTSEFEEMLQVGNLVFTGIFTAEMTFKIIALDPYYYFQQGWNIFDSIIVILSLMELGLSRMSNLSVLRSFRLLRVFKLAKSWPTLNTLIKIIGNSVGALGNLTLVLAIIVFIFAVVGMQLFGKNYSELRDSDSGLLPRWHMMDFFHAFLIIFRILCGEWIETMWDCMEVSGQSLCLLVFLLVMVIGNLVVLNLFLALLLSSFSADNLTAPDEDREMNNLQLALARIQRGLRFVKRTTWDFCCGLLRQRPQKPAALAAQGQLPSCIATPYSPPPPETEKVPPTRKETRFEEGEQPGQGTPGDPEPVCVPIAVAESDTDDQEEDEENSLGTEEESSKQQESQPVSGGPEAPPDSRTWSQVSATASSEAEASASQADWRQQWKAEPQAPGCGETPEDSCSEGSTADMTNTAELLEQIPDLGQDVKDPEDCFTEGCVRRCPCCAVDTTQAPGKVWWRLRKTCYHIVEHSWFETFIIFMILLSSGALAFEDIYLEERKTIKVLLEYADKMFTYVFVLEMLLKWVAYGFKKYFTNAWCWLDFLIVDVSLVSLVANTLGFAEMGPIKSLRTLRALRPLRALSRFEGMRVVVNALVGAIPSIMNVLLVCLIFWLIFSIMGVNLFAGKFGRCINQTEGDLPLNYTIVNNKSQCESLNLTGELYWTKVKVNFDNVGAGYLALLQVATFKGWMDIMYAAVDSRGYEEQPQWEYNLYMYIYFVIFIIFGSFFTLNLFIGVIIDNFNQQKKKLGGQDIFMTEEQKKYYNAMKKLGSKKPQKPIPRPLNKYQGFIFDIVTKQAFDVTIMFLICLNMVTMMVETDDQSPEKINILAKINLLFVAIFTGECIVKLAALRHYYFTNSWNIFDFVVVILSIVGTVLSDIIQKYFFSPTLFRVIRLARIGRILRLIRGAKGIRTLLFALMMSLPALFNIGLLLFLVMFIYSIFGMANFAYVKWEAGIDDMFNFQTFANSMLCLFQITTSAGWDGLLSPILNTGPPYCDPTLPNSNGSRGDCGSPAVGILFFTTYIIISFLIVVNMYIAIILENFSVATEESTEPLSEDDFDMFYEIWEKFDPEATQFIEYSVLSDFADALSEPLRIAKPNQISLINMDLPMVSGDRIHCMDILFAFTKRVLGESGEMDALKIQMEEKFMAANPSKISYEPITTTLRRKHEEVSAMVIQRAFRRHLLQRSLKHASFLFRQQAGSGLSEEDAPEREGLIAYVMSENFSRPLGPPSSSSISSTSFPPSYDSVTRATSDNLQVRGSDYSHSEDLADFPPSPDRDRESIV
# Description: (§1) Charged sodium channel blockers were tested for extracellular block of voltage-gated sodium channels in a thallium flux assay. Briefly, human embryonic kidney (HEK293) cells stably expressing either the Nav1.5 or Nav1.7 sodium channels were plated in 384 well plates. After overnight culture at 37° C., the cell culture medium was replaced the thallium-sensitive FluxOR dye (FluxOR assay kit, Thermo Fisher). Following a 60 minute incubation at room temperature, the dye-loading solution was replaced with assay buffer and the plates were loaded into a FDSS 7000EX multi-well plate reader (Hamamatsu). Dye fluorescence was measured using Fluo-4 filters (excitation 470 nm, emission 540 nm) at 1 Hz. Baseline fluorescence was measured for 30 s, followed by the addition of 15 μL/well of charged sodium channel blocker compounds. 10 minutes after compound addition, the cells were stimulated with a Tl^+ stimulus buffer and fluorescence measured. Tetraethylammonium (TEA) was used to block Kv channels and veratridine to block Nav channel inactivation. The fluorescence data was normalized with respect to no veratridine stimulus buffer control in order to isolate and measure the Nav channel component of the thallium flux.
# [3] = target: T3, Nav1.7 sodium channels (Homo sapiens, UniProt Q15858); assay: as above; format: cell-based
# T3 construct: expressed in transfected cells
# T3 sequence (Q15858 whole entry): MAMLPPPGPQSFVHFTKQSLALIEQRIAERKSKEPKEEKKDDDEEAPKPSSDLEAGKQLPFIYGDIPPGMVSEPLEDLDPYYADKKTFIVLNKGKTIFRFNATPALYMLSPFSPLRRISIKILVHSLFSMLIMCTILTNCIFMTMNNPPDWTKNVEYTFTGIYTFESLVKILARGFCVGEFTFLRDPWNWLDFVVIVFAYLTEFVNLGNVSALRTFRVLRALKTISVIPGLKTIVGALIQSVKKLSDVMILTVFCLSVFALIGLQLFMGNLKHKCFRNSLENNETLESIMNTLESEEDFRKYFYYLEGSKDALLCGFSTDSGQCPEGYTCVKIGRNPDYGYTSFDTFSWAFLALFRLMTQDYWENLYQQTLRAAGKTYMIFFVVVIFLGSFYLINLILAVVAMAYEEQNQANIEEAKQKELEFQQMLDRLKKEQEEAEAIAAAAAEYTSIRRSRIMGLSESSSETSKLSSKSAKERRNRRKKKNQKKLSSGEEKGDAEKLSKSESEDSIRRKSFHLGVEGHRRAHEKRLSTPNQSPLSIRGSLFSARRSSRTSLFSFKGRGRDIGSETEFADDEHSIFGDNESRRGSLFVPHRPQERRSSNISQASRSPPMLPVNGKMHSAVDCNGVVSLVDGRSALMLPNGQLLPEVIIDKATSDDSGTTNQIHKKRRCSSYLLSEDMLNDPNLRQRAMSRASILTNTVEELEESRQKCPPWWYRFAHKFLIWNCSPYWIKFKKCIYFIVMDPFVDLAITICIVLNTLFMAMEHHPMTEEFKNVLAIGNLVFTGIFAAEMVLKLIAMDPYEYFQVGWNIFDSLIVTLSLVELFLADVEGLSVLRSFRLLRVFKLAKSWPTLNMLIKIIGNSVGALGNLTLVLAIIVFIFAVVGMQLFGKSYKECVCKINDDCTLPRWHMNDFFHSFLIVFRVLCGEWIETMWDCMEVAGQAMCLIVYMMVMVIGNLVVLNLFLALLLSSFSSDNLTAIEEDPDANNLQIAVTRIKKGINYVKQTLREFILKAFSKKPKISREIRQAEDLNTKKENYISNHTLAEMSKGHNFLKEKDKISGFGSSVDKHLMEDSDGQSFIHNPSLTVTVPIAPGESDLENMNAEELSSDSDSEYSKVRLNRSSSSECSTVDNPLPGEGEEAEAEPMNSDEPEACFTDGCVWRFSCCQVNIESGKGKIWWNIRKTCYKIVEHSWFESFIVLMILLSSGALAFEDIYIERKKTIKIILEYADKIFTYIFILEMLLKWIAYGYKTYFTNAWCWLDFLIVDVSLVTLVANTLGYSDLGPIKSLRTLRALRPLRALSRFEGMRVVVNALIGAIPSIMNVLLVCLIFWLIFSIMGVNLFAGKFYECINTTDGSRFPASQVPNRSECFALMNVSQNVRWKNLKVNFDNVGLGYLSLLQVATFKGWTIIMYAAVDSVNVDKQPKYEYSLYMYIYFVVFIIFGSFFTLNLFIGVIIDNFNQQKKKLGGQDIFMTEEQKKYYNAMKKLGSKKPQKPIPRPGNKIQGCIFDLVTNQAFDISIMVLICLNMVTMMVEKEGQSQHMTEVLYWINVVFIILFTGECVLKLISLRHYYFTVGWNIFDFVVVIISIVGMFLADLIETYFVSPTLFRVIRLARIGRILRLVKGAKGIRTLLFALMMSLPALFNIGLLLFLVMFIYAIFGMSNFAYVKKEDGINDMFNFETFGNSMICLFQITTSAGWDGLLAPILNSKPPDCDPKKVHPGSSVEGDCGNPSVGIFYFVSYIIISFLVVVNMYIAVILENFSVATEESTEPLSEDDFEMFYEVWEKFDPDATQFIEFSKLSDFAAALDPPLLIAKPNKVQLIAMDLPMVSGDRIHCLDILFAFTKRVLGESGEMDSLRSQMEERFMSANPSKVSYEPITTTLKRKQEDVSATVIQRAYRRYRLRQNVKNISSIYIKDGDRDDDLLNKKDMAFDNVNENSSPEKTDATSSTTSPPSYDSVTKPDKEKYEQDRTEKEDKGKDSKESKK
# Description: as §1
# [4] = test system: endogenous Nav currents in TRPV1 expressing DRG neurons; assay: Patch clamp of sodium currents in DRG neurons after pretreatment with capsaicin + blocker; format: cell-based, mouse; settings: 100 micromolar with 300 nM capsaicin for 30 minutes, then washed off
# Description: Charged sodium channel blockers were tested for intracellular block of voltage-gated sodium currents after entry through activated TRPV1 channels in dissociated mouse dorsal root ganglia (DRG) neurons in vitro. DRG neurons from 8-week-old C57/B16 mice were removed and placed in DMEM containing 1% penicillin-streptomycin (Sigma), then treated for 90 minutes with 5 mg/mL collagenase, 1 mg/mL Dispase II (Roche). Cells were triturated in the presence of DNase I […] (50 U), centrifuged through 10% BSA (Sigma), resuspended in 1 mL of Neurobasal medium (Sigma)+1X B27 supplement (Thermo Fisher) and 1% penicillin-streptomycin, and plated onto 35-mm tissue culture dishes (Becton Dickinson) coated with 20 μg/mL laminin, at 8,000-9,000 cells per dish. Cultures were incubated at 37° C. under 5% CO2. Recordings were made at room temperature within 24 hours of plating. The DRG neurons were treated with 300 nM capsaicin alone or 300 nM capsaicin+100 μM charged sodium channel blocker in external solution for 30 minutes, after which the blocker was washed off with fresh external solution. Whole-cell voltage-clamp recordings of sodium currents were performed in small diameter DRG neurons and then the expression of TRPV1 measured by perfusion of 1 μM capsaicin. […]
# [5] = test system: citric acid induced cough; assay: Citric acid induced cough in ovalbumin sensitized guinea pigs, inhaled treatment; format: in vivo, guinea pig; settings: for inhibition of cough: inhaled one hour before 400 mM citric acid challenge, versus vehicle group; for Cough Count: total cough count of each individual animal, inhaled, one hour before citric acid
# Description: Dunkin Hartley Guinea pigs were used in this study (male and female). On Day 0 all animals were sensitized with an intraperitoneal and subcutaneous injection of 50 mg chicken egg albumin (ovalbumin). Animals were administered 1 mL of a 50 mg/mL ovalbumin in 0.9% w/v saline solution via the intraperitoneal route and 0.5 mL of the same solution into 2 separate subcutaneous sites (1 mL in total divided between the left and right flank). All animals were administered a single intraperitoneal dose of pyrilamine (15 mg/kg) at a dose volume of 1 mL/kg approximately 30 minutes prior to ovalbumin challenge on Day 14 to inhibit histamine-induced bronchospasm. On Day 14, animals were challenged with aerosolised ovalbumin in 0.9% w/v saline (3 mg/mL) for 15 min.
# Animals were placed in groups in an acrylic box. Then 8 mL of ovalbumin in saline was placed in each of two jet nebulisers (Sidestream®). Compressed air was passed through each nebuliser at approximately 6 L/min and the output of the nebulisers passed into the box containing the animals. On Day 15, approximately 24 hours after the inflammatory challenge with ovalbumin, animals were dosed with either vehicle, compound 1, or compound 2 by inhalation. One hour following the end of vehicle, compound 1, or compound 2 administration on Day 15, animals were placed into a whole body plethysmograph connected to a Buxco Finepointe system. All animals were then exposed to nebulized 400 mM citric acid for 7 minutes via an Aeroneb® nebuliser.
# Cough counts and respiratory parameters (respiratory rate, tidal volume, minute volume and Penh) were recorded throughout the exposure period and for 10 minutes following the end of nebulization period.
# T1 sequence (Q15858 whole entry): as above
"sodium current remaining after use-dependent block, % of the initial value [1]",Compound,"extracellular block of Nav1.5 ([2]; doses of up to 1 mM, applied extracellularly)","extracellular concentration at which dose dependent block of Nav1.5 starts ([2]; thallium flux, FIG. 3) [millimolar]","Nav subtype selectivity ([3]; Nav1.5 versus Nav1.7, thallium flux)","extracellular block of Nav1.7 ([3]; doses of up to 1 mM, applied extracellularly, HEK cells)","extracellular concentration at which dose dependent block of Nav1.7 starts ([3]; thallium flux, HEK cells, FIG. 4) [millimolar]",sodium currents in DRG neurons versus capsaicin alone [4],inhibition of cough [5] [%],Cough Count [5]
about 14%,"CCCC(C(=O)Nc1c(C)cccc1C)[N+]1(CC)CCCCC1 (centres unmarked) [Compound 2, 1-(1-((2,6-dimethylphenyl)amino)-1-oxopentan-2-yl)-1-ethylpiperidin-1-ium]",–,–,–,–,–,–,65,8 and 0 (5×) and 2 (2×) and 13 and 11 and 6 and 1
about 62%,"CC[N+](CC)(CC)CC(=O)Nc1c(C)cccc1C [QX-314, reference compound]",–,–,–,–,–,robust block,–,–

Compound,"sodium current remaining after use-dependent block, % of the initial value [1]","extracellular block of Nav1.5 ([2]; doses of up to 1 mM, applied extracellularly)","extracellular concentration at which dose dependent block of Nav1.5 starts ([2]; thallium flux, FIG. 3) [millimolar]","Nav subtype selectivity ([3]; Nav1.5 versus Nav1.7, thallium flux)","extracellular block of Nav1.7 ([3]; doses of up to 1 mM, applied extracellularly, HEK cells)","extracellular concentration at which dose dependent block of Nav1.7 starts ([3]; thallium flux, HEK cells, FIG. 4) [millimolar]",sodium currents in DRG neurons versus capsaicin alone [4],inhibition of cough [5] [%],Cough Count [5]
"CCC[N+]1(C(CC)C(=O)Nc2c(C)cccc2C)CCCCC1 (centres unmarked) [Compound 1, 1-(1-(2,6-dimethylphenylamino)-1-oxobutan-2-yl)-1-propylpiperidinium chloride]",about 15%,did not exhibit significant extracellular block,≥ 10,did not display any Nav subtype selectivity,did not exhibit significant extracellular block,≥ 10,considerably smaller,81,4 (2×) and 0 (7×) and 2 and 7 and 6

# — patent publication US20200231545A1, “CHARGED ION CHANNEL BLOCKERS AND METHODS FOR USE THEREOF” (President and Fellows of Harvard College, priority 2019, published 2020)
